Bridges are numbered along the chain shown (N, C = ends). Where no end group is shown, it is not given here.
Tested on: murine, infection induced, severe, steroid-insensitive, neutrophilic, allergic airways disease model of asthma
Assay: Differential leucocyte counts in BALF, Ovalbumin/C. muridarum steroid-insensitive asthma model
Format: in vivo, BALB/c mice
Details: Ova sensitized, C. muridarum infected mice, hBD-2 IN 5 mg/kg day 30, 32, 34
Experimental: Female 6-8 weeks old BALB/c mice were intraperitoneally (IP) sensitized to ovalbumin 50 μg with the adjuvant alum 1 mg in 200 μL 0.9% saline. Mice were intranasally (IN) challenged with Ova on day 12-13 and day 33-34 (10 μg in 50 μL sterile saline).
Airway inflammation: Differential leucocyte counts were obtained from May-Grunwald Giemsa stained BALF cells, using a light microscope.

GIGDPVTCLKSGAICHPVFCPRRYKQIGTCGLPGTKCCKKP (disulfide 8-37, 15-30, 20-38 (inferred)) [hBD-2, human beta defensin 2]
macrophages in BALF: did not change | neutrophil count in BALF: complete normalization | eosinophils in BALF (DEX IN 2 mg/kg day 32-34): did not change

— US11413328B2, “Methods for treating inflammatory conditions of the lungs” (priority 2016, dated 2022)
